One series concerns db/db and ob/ob mice. As to conditions: dose related; cited from earlier work.
The next series relates to hepatocytes. As to conditions: cited from earlier work.
Another series concerns conscious dogs. As to conditions: cited from earlier work.
The target of series [1] is T1, Human recombinant liver glycogen phosphorylase a (hrl GPa) (Homo sapiens, UniProt P06737).
T1 sequence (P06737 1-847): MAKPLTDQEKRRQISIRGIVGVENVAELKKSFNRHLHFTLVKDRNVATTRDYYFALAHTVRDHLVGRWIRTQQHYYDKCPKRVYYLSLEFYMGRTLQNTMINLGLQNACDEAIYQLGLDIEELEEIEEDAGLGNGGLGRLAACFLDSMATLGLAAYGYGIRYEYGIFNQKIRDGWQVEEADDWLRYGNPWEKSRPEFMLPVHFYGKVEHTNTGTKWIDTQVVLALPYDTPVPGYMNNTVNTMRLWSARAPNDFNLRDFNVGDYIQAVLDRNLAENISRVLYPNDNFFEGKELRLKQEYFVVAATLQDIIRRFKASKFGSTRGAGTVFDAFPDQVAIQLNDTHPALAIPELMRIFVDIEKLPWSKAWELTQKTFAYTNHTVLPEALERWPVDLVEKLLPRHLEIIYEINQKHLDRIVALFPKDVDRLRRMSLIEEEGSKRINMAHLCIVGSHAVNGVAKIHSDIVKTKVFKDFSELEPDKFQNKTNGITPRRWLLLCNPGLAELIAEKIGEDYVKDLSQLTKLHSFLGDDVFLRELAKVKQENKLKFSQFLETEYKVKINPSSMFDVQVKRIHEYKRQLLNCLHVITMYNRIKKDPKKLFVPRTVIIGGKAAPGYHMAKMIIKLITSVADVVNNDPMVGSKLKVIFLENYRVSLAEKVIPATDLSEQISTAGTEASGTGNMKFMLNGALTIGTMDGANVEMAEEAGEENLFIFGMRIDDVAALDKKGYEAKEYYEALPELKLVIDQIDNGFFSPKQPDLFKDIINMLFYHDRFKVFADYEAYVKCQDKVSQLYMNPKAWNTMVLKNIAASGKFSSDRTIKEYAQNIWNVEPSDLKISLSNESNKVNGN
The series is described as follows: Glycogen degradation multienzyme coupled assay (NADH fluorescence). Type of series: biochemical. The note with it: glycogen degradation direction. How it is done:
The activity of the compounds is alternatively determined by measuring the inhibitory effect of the compounds on glycogen degradation, the production of glucose-1-phosphate from glycogen is monitored by the multienzyme coupled assay, as described in EP 0 846 464 A2, general method of Pesce et al (Pesce, M A, Bodourian, S H, Harris, R C, and Nicholson, J F (1977) Clinical Chemistry 23, […]). The reactions were in 384 well microplate format in a volume of 50 μl. The change in fluorescence due to the conversion of the co-factor NAD to NADH is measured at 340 nm excitation, 465 nm emission in a Tecan Ultra Multifunctional Microplate Reader. The reaction is in 50 mM HEPES, 3.5 mM KH2PO4, 2.5 mM MgCl2, 2.5 mM ethylene glycol-bis(b-aminoethyl ether) N,N,N′,N′-tetraacetic acid, 100 mM KCl, 8 mM D-(+)-glucose pH7.2, containing 0.5 mM dithiothreitol, the assay buffer solution. Human recombinant liver glycogen phosphorylase a (hrl GPa) 20 nM is pre-incubated in assay buffer solution with 6.25 mM NAD, 1.25 mg type III glycogen at 1.25 mg ml^−1 the reagent buffer, for 30 minutes. […] The non-inhibited activity of GPa is measured in the presence of 10 μl 5% DMSO in assay buffer solution and maximum inhibition measured in the presence of 5 mgs ml^−1 N-ethylmaleimide. […] Relative Fluoresence Units (RFUs) are measured at 340 nm excitation, 465 nm emission. […]

The text below walks through data of US7115648B2, “Indole-amide derivatives and their use as glycogen phosphorylase inhibitors” (AstraZeneca AB, priority 2002, dated 2006).

Consider `CN(C)C(=O)[C@H](O)[C@H](Cc1ccccc1)NC(=O)c1cc2cc(Cl)ccc2[nH]1` [CP91149], for which, in the series on db/db and ob/ob mice, the plasma glucose concentration result is “reduced, in a dose related manner”. Also, in the series on hepatocytes, the glucagon stimulated glycogenolysis entry was “reduce” and the “glucose output in hepatocytes” value was “reduce”.
Take `CCN1C(C)=C(C(=O)OC(C)C)C(c2ccccc2Cl)C2=C1COC2=O` (stereo not drawn) [Bay R 3401]: in the series with conscious dogs, the “arterial plasma glucose following a glucagon challenge” value is on record as “reduced significantly” and the “hepatic glucose output following a glucagon challenge” value is recorded as “reduced significantly”.
With `O=C(NCC(=O)N(CCO)c1ccccc1)c1cc2cc(Cl)ccc2[nH]1` [Example 1, 5-Chloro-N-{2-[(2-hydroxyethyl)phenylamino]-2-oxoethyl}-1H-indole-2-carboxamide], the concentration for half-maximal inhibition (IC50) in series [1] worked out at 550 nM.
On to `O=C(N[C@@H](Cc1ccc(F)cc1)C(=O)N1CCC(O)CC1)c1cc2cc(Cl)ccc2[nH]1` [CP320626], for which the plasma glucose concentration result in the series on db/db and ob/ob mice is “reduced, in a dose related manner”. In the series with hepatocytes, the glucagon stimulated glycogenolysis result is given as “reduce” and the “glucose output in hepatocytes” value was “reduce”.

The term IC50 denotes the concentration that inhibits the measured activity by half.
